Assay results: ChEMBL document CHEMBL1150831, “Immunosuppressive sesquiterpene alkaloids from Tripterygium wilfordii” (2001)

Tests used:
Assay type in all cases: functional
[1] = tested on: PBMC; assay: Immunosuppressive activity in human PBMC assessed as inhibition of LPS-stimulated IL2 production at 0.3 ug/mL after 18 to 24 hrs by ELISA
[2] = tested on: PBMC; assay: Immunosuppressive activity in human PBMC assessed as inhibition of LPS-stimulated TNFalpha production at 0.3 ug/mL after 18 to 24 hrs by ELISA
[3] = tested on: PBMC; assay: Immunosuppressive activity in human PBMC assessed as inhibition of LPS-stimulated IL4 production at 0.3 ug/mL after 18 to 24 hrs by ELISA
[4] = tested on: PBMC; assay: Immunosuppressive activity in human PBMC assessed as inhibition of LPS-stimulated IFN-gamma production at 0.3 ug/mL after 18 to 24 hrs by ELISA
[5] = tested on: PBMC; assay: Immunosuppressive activity in human PBMC assessed as inhibition of LPS-stimulated IL1-beta production at 0.3 ug/mL after 18 to 24 hrs by ELISA
[6] = tested on: PBMC; assay: Immunosuppressive activity in human PBMC assessed as inhibition of LPS-stimulated IL8 production at 0.3 ug/mL after 18 to 24 hrs by ELISA
[7] = tested on: PBMC; assay: Immunosuppressive activity in human PBMC assessed as inhibition of LPS-stimulated IL1-beta production at 10 ug/mL after 18 to 24 hrs by ELISA
[8] = tested on: PBMC; assay: Immunosuppressive activity in human PBMC assessed as inhibition of LPS-stimulated IL8 production at 10 ug/mL after 18 to 24 hrs by ELISA
[9] = tested on: PBMC; assay: Immunosuppressive activity in human PBMC assessed as inhibition of LPS-stimulated IL2 production at 10 ug/mL after 18 to 24 hrs by ELISA
[10] = tested on: PBMC; assay: Immunosuppressive activity in human PBMC assessed as inhibition of LPS-stimulated IL4 production at 10 ug/mL after 18 to 24 hrs by ELISA
[11] = tested on: PBMC; assay: Immunosuppressive activity in human PBMC assessed as inhibition of LPS-stimulated TNFalpha production at 10 ug/mL after 18 to 24 hrs by ELISA
[12] = tested on: PBMC; assay: Immunosuppressive activity in human PBMC assessed as inhibition of LPS-stimulated IFN-gamma production at 10 ug/mL after 18 to 24 hrs by ELISA

Structure (SMILES)	inhibition at 0.3 µg/mL [1] [%]	inhibition at 0.3 µg/mL [2] [%]	inhibition at 0.3 µg/mL [3] [%]	inhibition at 0.3 µg/mL [4] [%]	inhibition at 0.3 µg/mL [5] [%]	inhibition at 0.3 µg/mL [6] [%]	inhibition at 10 µg/mL [7] [%]	inhibition at 10 µg/mL [8] [%]	inhibition at 10 µg/mL [9] [%]	inhibition at 10 µg/mL [10] [%]	inhibition at 10 µg/mL [11] [%]	inhibition at 10 µg/mL [12] [%]
C[C@]12C=CC(=O)C=C1CC[C@@H]1[C@@H]2[C@@H](O)C[C@@]2(C)[C@H]1CC[C@]2(O)C(=O)CO [PREDNISOLONE]	65	52	76	75	68	15	–	–	–	–	–	–
CC(=O)OC[C@]12[C@H](OC(C)=O)[C@H](OC(C)=O)[C@@H]3[C@@H](OC(C)=O)[C@@]14O[C@@]3(C)COC(=O)c1cccnc1CC[C@H](C)C(=O)O[C@@H]([C@H](OC(C)=O)[C@@H]2OC(C)=O)[C@]4(C)O [WILFORMINE]	–	–	–	–	–	–	14	60	50	77	20	71
